Experimental data taken from patent US8952222B2, “Herbicide resistant sunflower plants derived from RW-B cultivar” (Anglo Netherlands Grain B.V., priority 2008, dated 2015).
Where “and” joins values, the source holds several entries; their conditions need not be identical. Equal values may be shown once. Marks after values point to notes of the source that are not given here.

Assays:
Experiment in all cases: Whole plant dose response to metsulfuron
Format in all cases: in vivo
sunflower line B770 = settings: 14 DAT; for Dry weight (as a % of the untreated plants): above ground biomass, line Suscp; for Phytotoxicity Index: line B770 (WT-Susceptible), scale 0-9
sunflower line B770imi = settings: line B770IMI (A205V), 14 DAT; for Dry weight (as a % of the untreated plants): above ground biomass; for Phytotoxicity Index: scale 0-9
Experimental: (§1) Seeds were sown in Petri dishes and, after germination, plantlets were transplanted to pots of 10 cm of diameter in a potting media consisting of equal parts of vermiculite, soil and sand. Plants were grown in a greenhouse under natural light conditions supplemented with 400 W sodium halide lamps to provide a 16 hr daylight. Day/night temperatures were 25 and 20° C., respectively. […] Experiment was arranged as a randomized block design with a full factorial (sunflower line x treatment) arrangement of treatments and 10 replications.
(§2) On the day of herbicide application ten plants of each genotype were cut at the cotyledonal node and dried at 60° C. for 48 hrs for zero-time dried weight determination.
(§3) […] Above ground biomass data from each line were converted to biomass accumulation after application by subtracting the appropriate average zero-time biomass from each sample. Dry biomass data were converted to percentages of the untreated control plants within each line to allow direct comparisons between groups. […] Plants without any symptoms were recorded as “0”, increasing levels of stunting and chlorosis with respect to the untreated control plants were recorded as “1” to “4”, increasing levels of leaf abnormalities and leaf necrosis were recorded from “5” to “8”, and dead plants with total necrosis of the apex were recorded as “9”.

sunflower line RW-B = settings: line RW-B (W574L), 14 DAT; for Dry weight (as a % of the untreated plants): above ground biomass; for Phytotoxicity Index: scale 0-9
Experimental: as §1, §2, §3

sunflower line SuBL = settings: line SuBL (P197L), 14 DAT; for Dry weight (as a % of the untreated plants): above ground biomass; for Phytotoxicity Index: scale 0-9
Experimental: as §1, §2, §3

In the case of `COc1nc(C)nc(NC(=O)NS(=O)(=O)c2ccccc2C(=O)O)n1` [metsulfuron], the “Dry weight (as a % of the untreated plants)” value (sunflower line B770; metsulfuron 0.5x = 2.5 g ai/ha) is reported as 23.7^d %, the “Dry weight (as a % of the untreated plants)” value (sunflower line B770; metsulfuron 1x = 5 g ai/ha) is reported as 20^d % and the “Dry weight (as a % of the untreated plants)” value (sunflower line B770; metsulfuron 2x = 10 g ai/ha) is reported as 19.4^d %. The “Dry weight (as a % of the untreated plants)” value (sunflower line B770; metsulfuron 3x = 15 g ai/ha) was 19.2^d %, the “Dry weight (as a % of the untreated plants)” value (sunflower line B770; metsulfuron 4x = 20 g ai/ha) was 19.4^c % and the “Phytotoxicity Index” value (sunflower line B770; metsulfuron 0.5x = 2.5 g ai/ha) was 9^a. The “Phytotoxicity Index” value (sunflower line B770; metsulfuron 1x = 5 g ai/ha) was 9^a, the “Phytotoxicity Index” value (sunflower line B770; metsulfuron 2x = 10 g ai/ha) was 9^a and the “Phytotoxicity Index” value (sunflower line B770; metsulfuron 3x = 15 g ai/ha) was 9^a. The “Phytotoxicity Index” value (sunflower line B770; metsulfuron 4x = 20 g ai/ha) was 9^a, the “Dry weight (as a % of the untreated plants)” value (sunflower line B770imi; metsulfuron 0.5x = 2.5 g ai/ha) was 42^c % and the “Dry weight (as a % of the untreated plants)” value (sunflower line B770imi; metsulfuron 1x = 5 g ai/ha) was 30.1^c %. The “Dry weight (as a % of the untreated plants)” value (sunflower line B770imi; metsulfuron 2x = 10 g ai/ha) was 30.4^c %, the “Dry weight (as a % of the untreated plants)” value (sunflower line B770imi; metsulfuron 3x = 15 g ai/ha) was 30^c % and the “Dry weight (as a % of the untreated plants)” value (sunflower line B770imi; metsulfuron 4x = 20 g ai/ha) was 30.2^b %. The “Phytotoxicity Index” value (sunflower line B770imi; metsulfuron 0.5x = 2.5 g ai/ha) was 3.3^b, the “Phytotoxicity Index” value (sunflower line B770imi; metsulfuron 1x = 5 g ai/ha) was 5.2^b and the “Phytotoxicity Index” value (sunflower line B770imi; metsulfuron 3x = 15 g ai/ha) was 9^a. The “Phytotoxicity Index” value (sunflower line B770imi; metsulfuron 4x = 20 g ai/ha) was 9^a, the “Dry weight (as a % of the untreated plants)” value (sunflower line RW-B; metsulfuron 2x = 10 g ai/ha) was 73.9^a % and the “Dry weight (as a % of the untreated plants)” value (sunflower line RW-B; metsulfuron 3x = 15 g ai/ha) was 60.7^a %. For the same compound, the “Dry weight (as a % of the untreated plants)” value (sunflower line RW-B; metsulfuron 4x = 20 g ai/ha) was 38.1^a %, the “Phytotoxicity Index” value (sunflower line RW-B; metsulfuron 0.5x = 2.5 g ai/ha) was 0^c and the “Phytotoxicity Index” value (sunflower line RW-B; metsulfuron 1x = 5 g ai/ha) was 0.6^d. The “Phytotoxicity Index” value (sunflower line RW-B; metsulfuron 2x = 10 g ai/ha) was 1.1^d, the “Phytotoxicity Index” value (sunflower line RW-B; metsulfuron 3x = 15 g ai/ha) was 2.8^c and the “Dry weight (as a % of the untreated plants)” value (sunflower line SuBL; metsulfuron 0.5x = 2.5 g ai/ha) was 83.3% and 83.3^b %. For the same compound, the “Dry weight (as a % of the untreated plants)” value (sunflower line SuBL; metsulfuron 1x = 5 g ai/ha) was 72.4^b %, the “Dry weight (as a % of the untreated plants)” value (sunflower line SuBL; metsulfuron 2x = 10 g ai/ha) was 52.2^b % and the “Dry weight (as a % of the untreated plants)” value (sunflower line SuBL; metsulfuron 3x = 15 g ai/ha) was 35.7^b %. The “Dry weight (as a % of the untreated plants)” value (sunflower line SuBL; metsulfuron 4x = 20 g ai/ha) was 30.3% and 30.3^b %, the “Phytotoxicity Index” value (sunflower line SuBL; metsulfuron 2x = 10 g ai/ha) was 4.3^c and the “Phytotoxicity Index” value (sunflower line SuBL; metsulfuron 3x = 15 g ai/ha) was 7.2^b.
